The record followed here is US5492822A, “Method for recovering purified 100,000 dalton molecular weight fraction of human pancreatic cholesterol esterase” (Lange, III; Louis G., priority 1995, dated 1996).

The target of experiment [1] is T1, human pancreatic cholesterol esterase (100 kDa) (Homo sapiens, UniProt P19835).
T1 construct: from tissue; host or cells: human pancreas (autopsy)
T1 sequence (P19835 21-753): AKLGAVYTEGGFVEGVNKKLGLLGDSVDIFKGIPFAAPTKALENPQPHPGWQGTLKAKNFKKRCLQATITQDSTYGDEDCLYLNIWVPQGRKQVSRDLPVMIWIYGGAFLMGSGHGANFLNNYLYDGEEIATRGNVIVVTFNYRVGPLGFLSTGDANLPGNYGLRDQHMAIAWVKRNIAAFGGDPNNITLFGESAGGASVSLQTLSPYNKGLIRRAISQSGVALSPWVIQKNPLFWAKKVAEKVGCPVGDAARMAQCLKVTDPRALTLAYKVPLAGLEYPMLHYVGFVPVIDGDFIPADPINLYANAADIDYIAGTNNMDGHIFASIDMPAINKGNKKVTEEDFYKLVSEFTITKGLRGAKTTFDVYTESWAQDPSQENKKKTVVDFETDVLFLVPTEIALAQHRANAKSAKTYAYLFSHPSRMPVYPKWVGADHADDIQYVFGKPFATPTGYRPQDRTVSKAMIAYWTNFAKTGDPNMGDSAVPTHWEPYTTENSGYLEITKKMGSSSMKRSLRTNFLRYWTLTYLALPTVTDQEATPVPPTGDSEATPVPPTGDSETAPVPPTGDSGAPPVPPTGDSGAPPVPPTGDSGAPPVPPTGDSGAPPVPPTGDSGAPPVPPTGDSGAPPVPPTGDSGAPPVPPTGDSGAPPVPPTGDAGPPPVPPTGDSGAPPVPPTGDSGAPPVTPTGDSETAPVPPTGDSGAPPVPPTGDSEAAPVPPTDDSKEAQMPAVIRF
Description: Triolein hydrolysis by human pancreatic cholesterol esterase (100 kDa). The experiment is classed as biochemical. An excerpt:
(§1) Human pancreatic cholesterol esterase (100 kDa) and human pancreatic triglyceride lipase (52 kDa) were purified to homogeneity (Examples 1 and 3), and their abilities to cleave triglycerides and cholesteryl esters were compared. […] Virtually the same results were found with cholesteryl esters; the 100 kDa enzyme cleaved cholesterol oleate at a rate at least 490-fold greater than that found for the 52 kDa triglyceride lipase.

Experiment [2] concerns the target T2, human pancreatic triglyceride lipase (52 kDa) (Homo sapiens, UniProt P16233).
T2 sequence (P16233 17-465): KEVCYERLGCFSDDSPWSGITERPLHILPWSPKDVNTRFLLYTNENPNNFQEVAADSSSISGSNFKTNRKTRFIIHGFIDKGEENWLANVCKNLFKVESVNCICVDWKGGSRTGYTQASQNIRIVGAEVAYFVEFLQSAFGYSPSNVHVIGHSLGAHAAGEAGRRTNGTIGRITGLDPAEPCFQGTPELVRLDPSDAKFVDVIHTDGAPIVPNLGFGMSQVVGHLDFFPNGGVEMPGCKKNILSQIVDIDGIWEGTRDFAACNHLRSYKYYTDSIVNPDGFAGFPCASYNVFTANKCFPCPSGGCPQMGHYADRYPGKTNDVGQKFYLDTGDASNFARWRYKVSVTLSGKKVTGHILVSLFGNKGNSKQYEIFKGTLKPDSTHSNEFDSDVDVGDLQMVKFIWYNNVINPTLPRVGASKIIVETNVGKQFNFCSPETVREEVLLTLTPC
Briefly: Triolein hydrolysis by human pancreatic triglyceride lipase (52 kDa). The experiment is classed as biochemical.
From the text: as §1

Experiment [3] deals with T3, human pancreatic cholesterol esterase (Homo sapiens, UniProt P19835).
T3 construct: from tissue; host or cells: human pancreas (autopsy)
T3 sequence (P19835 21-753): T1 sequence (P19835 21-753)
Description: Binding of 125I-cholesterol esterase to small intestine vesicles and its displacement. Here is the method:
(§2) Vesicles contained 1.0 mg protein/ml, 30 ug total cholesterol/mg protein and 50 ug endogenous heparin/mg protein. ^125 I-cholesterol esterase (100K or 67K form) was added (0 to 400 pmol; 2,000 dpm/pmol) to 100 ug of protein of small intestine vesicles in 10 mM Tris-Cl, pH 7.2 for 15 min. at 37°. The concentration of offered ^125 I-cholesterol esterase varied between 10 nM and 1 uM. Experiments were performed utilizing 1% blotto to decrease nonspecific protein binding to the vesicles. After the 15 minute incubation at 37°, the reaction was quenched and the assay mixtures were filtered through wells of a Millipore system containing 0.2 micron pore filters presoaked in buffer. The filtrate was-collected to assess free (unbound) enzyme, and the filters were then immediately washed with 15 ml of cold buffer and counted for ^125 I. Total binding was defined as ^125 I-dpm bound to filter paper minus ^125 I-dpm detected in the same reaction without vesicles (background). Nonspecific binding (radioactivity bound to the vesicles in the presence of excess cold ligand) was quantitated as the amount of ^125 I-cholesterol esterase binding in the presence of a 1000-fold molar excess of unlabeled cholesterol esterase as described above. Specific binding is defined as the difference between total bound dpm and nonspecific-bound dpm (converted to moles bound by dividing by the SRA).

The test system of experiment [4] is human pancreatic cholesterol esterase. The experiment is described as above. Here is the method: as §2
Experiment [5] has as its target T3, human pancreatic cholesterol esterase. Briefly: Elution of human pancreatic cholesterol esterase bound to heparin immobilized on Sepharose. The experiment is classed as binding. The conditions noted are these: 5 mg/ml chondroitin sulfate.
Experiment [6] deals with small intestine membrane vesicles (membrane-bound heparin). Description: Binding of 125I-labeled bovine pancreatic enzymes to small intestine membrane vesicles. The conditions noted are these: 125I-labeled bovine pancreatic enzyme, 1% Blotto. Here is the method:
as §2, with “Exogenous heparin inhibits the interaction and binding of pancreatic choleserol esterase to small intestine vesicles prepared from proximal small intestine segments homogenized in 10 mM Tris-Cl, pH 7.2, and centrifuged at 48,000 X g for 45 minutes. Vesicles” for “Vesicles”, “After the 15 minute incubation at 37°, the reaction was quenched and the assay mixtures were filtered through wells of a Millipore system containing 0.2 micron pore filters presoaked in buffer.” left out, “Specific binding is defined as the difference between total bound dpm and nonspecific-bound dpm (converted to moles bound by dividing by the SRA).” left out

In experiment [7] the test system is CaCo cells. Briefly: Cellular uptake of [14C]oleate from [14C]triolein. The format is cell-based. The conditions noted are these: at eight hours. How it is done: Confluent monolayers of 2×10^6 CaCo cells (Example 5b) were incubated with 2 mM taurocholate and with [^14 C]triolein (5 uM) embedded in phosphatidylcholine vesicles. In the absence of triglyceride lipase, cellular uptake of [^14 C] oleate was linear and at eight hours was 204 pmol. In the presence of human triglyceride lipase (25 nM) and colipase (400 nM), uptake was brisk, reaching 706 pmol at eight hours. Moreover, enzyme-mediated uptake was also dependent on the presence of colipase in the medium, since uptake was only 229 pmol at eight hours in its absence. Heparin (400 uM) added to medium containing triglyceride lipase and colipase reduced uptake from 706 pmol to 329 pmol at eight hours. Thus, heparin decreased cellular uptake of oleate (oleic acid) from cleaved triglyceride by 75%.

A short description of experiment [8]: Cholesterol ester synthesis versus hydrolysis by the 52K form. The format is biochemical, human. Here is the method:
Human pancreatic cholesterol esterase (52K form) can be isolated as follows. Cytosol prepared as above from 30 g pancreas is dialyzed versus 10 mM Tris-Cl, 50 mM benzamidine, pH 8.2 and then chromatographed over DEAE cellulose (2.6×25 cm). Unlike the higher molecular weight forms of cholesterol esterase which bind under these conditions, the 52K species rapidly passes through DEAE cellulose at pH 8.2, with a 40-fold purification and 80% yield. Subsequent chromatography over hydroxylapatite and heparin-Sepharose yields a homogeneous protein (SDS-PAGE, M.W.=52K) with enzymatic activity expressed principally in the synthetic direction for cholesterol esters (rate of synthesis/rate of hydrolysis=10/1). This species also cross-reacts in western blotting to anti-cholesterol esterase antibodies.

In the case of `[Cl-].[Na+]` [NaCl, reference compound], in experiment [1] (0.15 M NaCl), the “effect on triolein hydrolysis by the 100 kDa esterase” value is given as “unaffected”. In addition, in experiment [2] (0.15 M NaCl), the “inhibition of triolein hydrolysis by the 52 kDa enzyme” value is listed as 68%. Moreover, in experiment [3] (150 mM NaCl), the “displacement of cholesterol esterase from vesicles” value is listed as “ineffective”. Further, the “effect on specific binding of 125I-cholesterol esterase to vesicles” value in experiment [4] (isotonic saline) is “no effect”.
Turning to chondroitin sulfate, in experiment [5], the “elution of bound enzyme from heparin-Sepharose” value is “completely ineffective”. For the same molecule, the “displacement of cholesterol esterase from vesicles” value in experiment [3] (10 mg/ml chondroitin sulfate) is “ineffective”. The “decrease of specific binding of 125I-cholesterol esterase to vesicles” value in experiment [4] (0.5 to 100-fold molar excesses) is given as “less than 10%”.
Regarding “phospholipase A2: bovine pancreatic phospholipase A2 radiolabeled with Na125I”, in experiment [6], the “binding to small intestine membrane vesicles / membrane-bound heparin” value is reported as “do not bind”.

B1: Human pancreatic cholesterol esterase (52K form): 52K protein isolated as in Example 3; called triglyceride lipase in Example 10 (protein, UniProt P16233 17-465, looked up)
Pancreatic triacylglycerol …: T2 sequence (P16233 17-465)
With B1, in experiment [2] (homogeneous 52 kDa enzyme), the “rate of triolein hydrolysis” value was found to be 27 nmol/hr/g pancreas. Further, the “cellular uptake of [14C]oleate” value worked out at 706 pmol in experiment [7] (human triglyceride lipase 25 nM and colipase 400 nM); 229 pmol in experiment [7] (triglyceride lipase in the absence of colipase). In addition, the “rate of synthesis/rate of hydrolysis of cholesterol esters” value in experiment [8] is given as 10/1.

B2: colipase: cofactor protein added to triglyceride lipase (protein, UniProt P04118 23-112, looked up)
Colipase: GIIINLENGELCMNSAQCKSNCCQHSSALGLARCTSMASENSECSVKTLYGIYYKCPCERGLTCEGDKTIVGSITNTNFGICHDAGRSKQ
For B2, in experiment [1] (50-fold molar excess of colipase), the “effect on triolein hydrolysis by the 100 kDa esterase” value was “unaffected”. Moreover, in experiment [2] (10-fold excess of colipase), the “stimulation of triolein hydrolysis by the 52 kDa enzyme” value was 375%.
